Source: PMC8810462, “Targeted fluorescent imaging of a novel FITC-labeled PSMA ligand in prostate cancer” (Amino Acids, 2021)

Key:
[1] = system: PSMA(+) LNCaP cells; assay: In vitro confocal fluorescence imaging, cell uptake; format: cell-based, human
Method: (§1) Both the LNCaP cells and PC3 cells were grown in a T25 cell culture flask (Corning Inc., Corning, NY, USA). The cultured LNCaP cells and PC3 cells were inoculated into a confocal dish and placed in an incubator at 37 °C/5% CO2 for 24 h. The medium was changed 2 h before the cell uptake experiment. The medium was removed, the flask rinsed once with PBS, and 5 μg of PSMA-FITC (100 μl) was added to each dish, which was then filled with medium to a final volume of 2 ml. The cells were incubated in an incubator for 60 min, washed 4 times with PBS buffer containing 0.2% BSA. Add 450 μl 4% paraformaldehyde to fix the cells for 10 min then rinse with PBS for four times. Cell nucleus were stained with 450 μl Hoechst33342 for 10 min and rinsed with PBS for four times. Add 500 μl PBS before observation. The cells were observed under confocal microscope (Olympus FV 1000) in dark room. In the blocking group, the LNCaP cells were pretreated with 2-PMPA (20 μg) for 30 min, and then PSMA-FITC was added and incubated for 60 min. The steps are the same as described above in the dark.

[2] = system: PSMA(−) PC3 cells; assay: as above; format: cell-based, human; details: 5 μg PSMA-FITC, 37 °C, 60 min
Method: as §1

[3] = system: 22Rv1 tumor xenograft; assay: In vivo fluorescence imaging of tumor-bearing mice; design: species or system BALB/c male nude mice; details: for tumor-background ratio (TBR): 60 min after injection, n = 5
Method: (§2) All animal procedures were performed in accordance with the protocol approved by the Animal Care and Use Committee of the PLA General Hospital. BALB/c male nude mice (approximately 3–4 weeks old, with a body weight of 13–15 g) were purchased from Charles River Laboratories (Beijing, China). Then, 0.1 ml (approximately 5 × 10^6 cells) of 22Rv1 cell suspension was subcutaneously injected into the right shoulder of each mouse to form an 22Rv1 tumor xenograft. Vernier calipers were used to measure the length and shortest diameter of the tumor, and the tumor volume was estimated according to the formula (V = 1/2 × long diameter × shortest diameter^2). Fluorescence imaging was performed in vivo and in vitro when the tumor volume reached 200–300 mm^3. The PC3 cell planting method is the same as 22Rv1 cell planting method.
(§3) In vivo fluorescence imaging was performed using the French Biospace Lab in vivo optical imaging system, the PHOTON IMAGER OPTIMA multidimensional real-time awake animal in vivo optical imaging system software was used for analysis, and the FITC exclusive filter was used to collect the fluorescence of PSMA-FITC. All images were collected using the same parameters (lamp voltage, filter, exposure height, exposure time, and field of view). The collected images were processed in a unified manner, and the number of photons per second per centimeter squared per steradian (ph/s/cm^2/sr) was used for analysis. 22Rv1 tumor-bearing mice in the nonblocking group (n = 5) and PC3 tumor-bearing mice (n = 5) were injected with PSMA-FITC (0.5 mg/kg) through the tail vein, and fluorescence imaging was performed at different time points after injection. The 22Rv1 tumor-bearing mice (n = 5) in the blocking group were injected with a mixture of 2-PMPA (2 mg/kg) and PSMA-FITC (0.5 mg/kg), and fluorescence imaging was performed 60 min after the injection. Another 9 22Rv1 tumor-bearing mice were divided into three groups (3/group), PSMA-FITC (0.5 mg/kg) was injected into the tail vein, and the mice were euthanized 30, 60, or 120 min after injection. The tumors, tissues, and organs were dissected, and a fluorescence imaging system was used for in vitro imaging. The ROI was delineated, and the average fluorescence intensity reported.
(§4) All measured values are expressed as the means ± standard deviation. Independent sample t-test was used for statistical analysis, and P < 0.05 was considered statistically significant. To clarify tumor contrast, the region of interest (ROI) was delineated, and the mean fluorescence intensity of tumor tissue (T) and background (B) was collected. TBR was used to represent tumor-background contrast. Normal muscle tissue was selected as the background to outline.

[4] = system: PSMA (−) PC3 tumor; assay: In vivo fluorescence imaging of tumor-bearing mice; design: species or system BALB/c male nude mice; details: 0.5 mg/kg tail vein, compared with 22Rv1 tumor-bearing mice
Method: as §2, §3, §4

[5] = Ex vivo fluorescence imaging of dissected tumors, tissues and organs (distribution); format: in vivo, BALB/c male nude mice; details: 22Rv1 tumor-bearing mice, 0.5 mg/kg tail vein, 30, 60, 120 min
Method: as §3

[6] = Acute toxicity test (HE staining of organs); format: in vivo, ICR male mice; details: 100 mg/kg tail vein, organs collected 7 days later
Method: ICR male mice (approximately 3–4 weeks old, with a body weight of 12–16 g) were injected with PSMA-FITC (100 mg/kg) through the tail vein, and organs were collected 7 days later. The organs were sectioned and stained with HE. The control group was injected with the same volume of normal saline. The steps are the same as described above.

[7] = 0.5 mg/kg tail vein, 22Rv1 tumor-bearing mice

Compound: O=C(O)CCC(NC(=O)NC(CCCCNC(=O)CCCCCNC(=S)Nc1ccc2c(c1)C(=O)OC21c2ccc(O)cc2Oc2cc(O)ccc21)C(=O)O)C(=O)O (stereo not drawn) [PSMA-FITC]
- fluorescence signal in cells (confocal microscopy) ([1]; LNCaP cells pretreated with 2-PMPA (20 μg) for 30 min, then PSMA-FITC 60 min): negligible fluorescence signaling
- fluorescence signal in cells (confocal microscopy) ([1]; LNCaP cells, 5 μg PSMA-FITC, 37 °C, 60 min, no blocking): Significant fluorescence signals
- fluorescence signal in cells (confocal microscopy) [2]: negligible fluorescence signaling
- time of highest tumor-background contrast after injection [3, 7]: 60 min
- time to tumor targeting after injection [3, 7]: ≤ 30 min
- tumor-background ratio (TBR) ([3]; blocking group, coinjection of 2-PMPA 2 mg/kg with PSMA-FITC 0.5 mg/kg): 0.44 ± 0.13
- tumor-background ratio (TBR) ([3]; nonblocking group, PSMA-FITC 0.5 mg/kg tail vein): 3.45 ± 0.31
- tumor uptake of the probe [4]: significantly lower than that of 22Rv1 tumor-bearing mice
- fluorescence intensity of liver and small intestine (ex vivo) [5]: strong fluorescence intensity
- fluorescence intensity of the bladder (ex vivo) [5]: obviously at a high level
- uptake by the kidney (ex vivo fluorescence) [5]: higher than that measured in other normal organs
- organ damage (histopathology, HE staining) [6]: not damaged
